Laboratory results: patent publication US10745814B2, “Enzymatic nucleic acid synthesis” (President and Fellows of Harvard College, priority 2016, dated 2020)

Biological target: TdT (Bos taurus, UniProt P06526)
Assay: Screen of nucleotides and nucleotide analogues as substrates for TdT-based DNA synthesis
Format: biochemical
Conditions: for behavior with respect to TdT-based DNA synthesis (extension efficiency, rate, and extension length distribution): natural nucleotides compared with each other; for efficiency as substrates of TdT compared to natural counterparts: analogues more positively charged than natural counterparts
From the text: Nucleotide analogues may be used as substrates for enzymatic synthesis using TdT. In the general scheme of the presently disclosed methods, the distribution of extension length by TdT is important to ensure efficient and reliable encoding of information into DNA.
These analogues include, but are not limited to, 5-Aminoallyl-dUTP and 5-Propargylamino-dUTP.

Chain of TdT (P06526 whole entry): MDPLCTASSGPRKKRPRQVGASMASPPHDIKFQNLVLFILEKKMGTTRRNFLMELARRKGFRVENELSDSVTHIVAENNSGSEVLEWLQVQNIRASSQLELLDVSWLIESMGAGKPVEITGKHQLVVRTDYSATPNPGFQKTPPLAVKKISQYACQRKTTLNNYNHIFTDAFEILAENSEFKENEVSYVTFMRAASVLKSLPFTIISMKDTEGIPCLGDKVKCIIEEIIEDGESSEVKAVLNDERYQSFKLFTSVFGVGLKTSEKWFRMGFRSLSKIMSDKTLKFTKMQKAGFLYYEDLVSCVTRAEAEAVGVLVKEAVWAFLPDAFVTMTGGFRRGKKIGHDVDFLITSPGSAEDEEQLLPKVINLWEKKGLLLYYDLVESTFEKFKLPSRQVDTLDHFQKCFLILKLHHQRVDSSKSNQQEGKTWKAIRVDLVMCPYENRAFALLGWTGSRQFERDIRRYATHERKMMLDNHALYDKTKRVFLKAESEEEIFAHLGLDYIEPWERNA

Row | behavior with respect to TdT-based DNA synthesis (extension efficiency, rate, and extension length distribution) | efficiency as substrates of TdT compared to natural counterparts | SMILES
1 | most optimal behavior |  | Nc1ccn([C@H]2C[C@H](O)[C@@H](COP(=O)(O)OP(=O)(O)OP(=O)(O)O)O2)c(=O)n1 [dCTP]
2 |  | far more efficient substrates of TdT | NC/C=C/c1cn(C2CC(O)C(COP(=O)(O)OP(=O)(O)OP(=O)(O)O)O2)c(=O)[nH]c1=O (centres unmarked) [5-Aminoallyl-dUTP]
3 |  | far more efficient substrates of TdT | NCC#Cc1cn(C2CC(O)C(COP(=O)(O)OP(=O)(O)OP(=O)(O)O)O2)c(=O)[nH]c1=O (centres unmarked) [5-Propargylamino-dUTP]

Second part, the molecule before the results:

Row | SMILES | behavior with respect to TdT-based DNA synthesis (extension efficiency, rate, and extension length distribution) | efficiency as substrates of TdT compared to natural counterparts
4 | Nc1nc2c(ncn2[C@H]2C[C@H](O)[C@@H](COP(=O)(O)OP(=O)(O)OP(=O)(O)O)O2)c(=O)[nH]1 [dGTP] | poorest behavior | 
5 | Nc1ncnc2c1ncn2[C@H]1C[C@H](O)[C@@H](COP(=O)(O)OP(=O)(O)OP(=O)(O)O)O1 [dATP] | poorest behavior | 
